Holding throughout (format): cell-based
Experiment [1] concerns the target T1, parathyroid cell calcium receptor (Bos taurus, UniProt P35384).
T1 sequence (P35384 20-1085): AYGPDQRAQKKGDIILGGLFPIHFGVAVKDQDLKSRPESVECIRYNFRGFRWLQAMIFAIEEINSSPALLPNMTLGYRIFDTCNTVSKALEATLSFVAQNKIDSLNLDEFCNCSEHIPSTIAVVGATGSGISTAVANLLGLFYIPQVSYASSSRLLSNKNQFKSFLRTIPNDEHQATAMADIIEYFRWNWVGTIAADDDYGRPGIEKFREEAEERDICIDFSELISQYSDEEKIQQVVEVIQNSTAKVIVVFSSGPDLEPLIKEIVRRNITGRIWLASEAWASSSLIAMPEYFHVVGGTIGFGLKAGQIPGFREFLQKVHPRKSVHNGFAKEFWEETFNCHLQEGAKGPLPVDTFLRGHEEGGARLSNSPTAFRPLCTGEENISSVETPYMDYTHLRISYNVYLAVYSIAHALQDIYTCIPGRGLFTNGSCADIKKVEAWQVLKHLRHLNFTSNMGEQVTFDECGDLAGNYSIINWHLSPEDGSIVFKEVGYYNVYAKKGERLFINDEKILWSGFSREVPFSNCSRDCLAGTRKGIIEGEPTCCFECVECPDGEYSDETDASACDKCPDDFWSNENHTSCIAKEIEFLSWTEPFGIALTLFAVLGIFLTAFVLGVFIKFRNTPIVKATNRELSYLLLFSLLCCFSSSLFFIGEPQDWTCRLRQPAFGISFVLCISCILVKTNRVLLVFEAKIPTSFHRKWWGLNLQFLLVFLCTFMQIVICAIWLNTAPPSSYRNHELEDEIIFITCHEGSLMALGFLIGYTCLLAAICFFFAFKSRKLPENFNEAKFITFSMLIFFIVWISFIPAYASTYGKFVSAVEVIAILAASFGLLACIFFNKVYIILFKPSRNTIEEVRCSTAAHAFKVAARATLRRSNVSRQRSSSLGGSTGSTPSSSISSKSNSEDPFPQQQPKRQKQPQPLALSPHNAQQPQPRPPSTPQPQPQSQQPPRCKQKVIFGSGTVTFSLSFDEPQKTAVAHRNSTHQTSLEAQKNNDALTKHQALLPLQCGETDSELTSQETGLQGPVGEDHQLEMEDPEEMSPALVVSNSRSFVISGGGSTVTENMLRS
The experiment in a line: cell-based. The conditions noted are these: for effect on mobilization elicited by extracellular divalent cations / effect on [Ca2+]i at low extracellular Ca2+: 100 μM; for effect on [Ca2+]i at low extracellular Ca2+: 0.5 mM extracellular Ca2+; for relative potency, in words: parathyroid cells; for EC50: increases in intracellular calcium, fura-2 loaded cells. A general note: Calcium flux is commonly read through the fluorescence of an indicator in the cells.
Description: For example,. bovine parathyroid cells loaded with fura-2 are initially suspended in buffer containing 0.5 mM CaCl2. A test substance is added to the cuvette in a small volume (5-15 μl) and changes in the fluorescence signal are measured. Cumulative increases in the concentration of the test substance are made in the cuvette until some predetermined concentration is achieved or no further changes in fluorescence are noted.
Human parathyroid glands, were obtained from patients undergoing surgical removal of parathyroid tissue for primary or uremic hyperparathyroidism (uremic HPT), and were treated similarly to bovine tissue.
The cells were then pelleted, resuspended in the same buffer, but lacking the ester, and incubated a further 15 minutes at 37° C. The cells were subsequently washed twice with PCB containing 0.5 mM CaCl2 and 0.5% BSA and maintained at room temperature (about 20° C.). Immediately before use, the cells were diluted five-fold with prewarmed 0.5 mM CaCl2 -PCB to obtain a final BSA concentration of 0.1%. The concentration of cells in the cuvette used for fluorescence recording was 1-2×10^6 /ml.
The fluorescence of indicator-loaded cells was measured at 37° C. in a spectrofluorimeter (Biomedical Instrumentation Group, University of Pennsylvania, Philadelphia, Pa.) equipped with a thermostated cuvette holder and magnetic stirrer using excitation and emission wavelengths of 340 and 510 nm, respectively. […] Leakage of dye is dependent on temperature and most occurs within the first 2 minutes after warming the cells in the cuvette. Dye leakage increases only very slowly thereafter. To correct the calibration for dye leakage, cells were placed in the cuvette and stirred at 37° C. for 2-3 minutes. The cell suspension was then removed, the cells pelleted, and the supernatant returned to a clean cuvette. […] This estimate was subtracted from the apparent Fmin.

The subject of experiment [2] is Ca2+ influx in parathyroid cells. The experiment in a line: Ca2+ influx in bovine parathyroid cells. As to conditions: for effect on [Ca2+]i: 100 to 1000 μM, 2 mM CaCl2; for effect on extracellular Ca2+-elicited increases in [Ca2+]i: pretreatment.
The target of experiment [3] is T2, bovine parathyroid cell calcium receptor (Bos taurus, UniProt P35384).
T2 construct: expressed in transfected cells; host or cells: Xenopus laevis oocytes injected with BoPCaR 1 cRNA
T2 sequence (P35384 20-1085): T1 sequence (P35384 20-1085)
Nature of the experiment: Cl- current in Xenopus oocytes expressing BoPCaR 1. As to conditions: for effect on inward currents: EGTA 100 μM, 9AC, A23187. The method, then: Several pharmacological and biochemical criteria were used to identify this clone as encoding a bona fide bovine parathyroid Ca^2+ receptor. […] These responses increased markedly over a period of one to four days after injection of the eggs with cRNA prepared from the BoPCaR 1 cDNA. Furthermore, the ranges of the concentrations of the two cations eliciting this response were very similar to those shown previously to act on bovine parathyroid cells in vitro.
Xenopus oocytes were injected with BoPCaR 1, the 5.3 Kb cDNA encoding a bovine parathyroid cell calcium receptor as described in Example 25. After two to three days, Cl^- currents were examined in the oocytes using a two-electrode voltage clamp.
Xenopus oocytes were injected with BoPCaR 1 as described in Example 25. After two to three days, Cl^- currents were examined in the oocytes using two electrode voltage clamp.

“Also recorded” adds a separate entry of the source. Like-named read-outs stand apart in the source and are kept apart here.

For `COc1ccc(CCN(C)CCCC(C#N)(c2cc(OC)c(OC)c(OC)c2)C(C)C)cc1OC` [Compound D-600], in experiment [1], the “mode of action at the calcium receptor” value is listed as “partial agonists or allosteric activators”, the “effect on mobilization elicited by extracellular divalent cations” value is recorded as “potentiated the mobilization of intracellular Ca^2+” and the “effect on [Ca2+]i at low extracellular Ca2+” value is “evoked no change”. Further, in experiment [2] (100 μM), the “effect on influx of extracellular Ca2+” value is reported as “blocked the influx of extracellular Ca^2+”. With `CC(NCCCc1ccccc1)c1ccccc1` (stereo not shown) [Compound 1D], in experiment [1], the “relative potency, in words” value was “nearly as potent as the parent molecule”. As for `COc1ccc(CC(=O)NCCCCCCCCCCCCN)cc1OC` [NPS 384], the “effect on [Ca2+]i” value in experiment [1] (NPS 384 300 μM) is “did not evoke an increase in [Ca^2+ ]i; also recorded: fails to do so”. Also, in experiment [2] (300 μM), the “effect on influx of extracellular Ca2+” value is on record as “blocked influx of extracellular Ca^2+”. Further, in experiment [2], the “effect on [Ca2+]i” value was “causes a prompt fall in [Ca^2+ ]i” and the “effect on extracellular Ca2+-elicited increases in [Ca2+]i” value was “depresses steady-state, but not transient increases in [Ca^2+ ]i”. Turning to `CNc1ccc2oc(C[C@H]3O[C@@]4(CC[C@H]3C)O[C@H]([C@H](C)C(=O)c3ccc[nH]3)[C@H](C)C[C@H]4C)nc2c1C(=O)O` [Compound A23187], the “effect on inward currents” value in experiment [3] is given as “activated”. As to `NCCCCCCCCCCCCN` [1,12-diaminododecane (DADD), 1,12-diaminododecane], in experiment [2], the “effect on [Ca2+]i” value is “causes a prompt fall in [Ca^2+ ]i” and the “effect on extracellular Ca2+-elicited increases in [Ca2+]i” value was “depresses steady-state, but not transient increases in [Ca^2+ ]i”. What is called EC50 is the concentration that produces a half-maximal response. With `CC(NCCCc1ccccc1)C1CCCCC1` (stereo not shown) [Compound 20V], the EC50 in experiment [1] (Table 7) was over 100 µM. Consider `CCCC(=O)N[C@@H](Cc1ccc(O)cc1)C(=O)NCCCCNCCCNCCCN` [Philanthotoxin-433], for which the “effect on [Ca2+]i” value in experiment [1] (500 μM) is reported as “without effect”. With `CC1=C(C(=O)OC(C)C)[C@@H](c2cccc3nonc23)C([N+](=O)[O-])=C(C)N1` [(-) 202-791], the “effect on basal or extracellular Ca2+-evoked [Ca2+]i” value in experiment [1] (1 μM) is “None of the dihydropyridines tested”.

As to `CC(N[C@H](C)c1ccccc1)c1cccc2ccccc12` (stereo partly shown) [Compound 4G], the EC50 in experiment [1] (Table 8) is 1.8 µM.

Take `COC(=O)C1=C(C)NC(C)=C(C(=O)OC)C1c1ccccc1[N+](=O)[O-]` [nifedipine]: in experiment [1], the “effect on basal or extracellular Ca2+-evoked [Ca2+]i” value is on record as “None of the dihydropyridines tested”. Turning to `CC1=C(C(=O)OC(C)C)[C@H](c2cccc3nonc23)C([N+](=O)[O-])=C(C)N1` [(+) 202-791], in experiment [1] (1 μM), the “effect on basal or extracellular Ca2+-evoked [Ca2+]i” value is listed as “None of the dihydropyridines tested”. As for `O=C(O)CN(CCOCCOCCN(CC(=O)O)CC(=O)O)CC(=O)O` [EGTA], the “effect on inward currents” value in experiment [3] was “prevents oocytes expressing the calcium receptor from responding”. With `NCCNCCNCCN` [Triethylenetramine (TETA), triethylenetetramine], the “effect on [Ca2+]i” value in experiment [1] was “mobilize intracellular Ca^2+”.

As for `NCCCN(CCCN)CCCN(CCCN)CCCCN(CCCN)CCCN(CCCN)CCCN` [NPS 381, N^1,N^1,N^5,N^10,N^14,N^14-hexakis-(3-aminopropyl) spermine], the “effect on [Ca2+]i” value in experiment [1] was “mobilize intracellular Ca^2+”. On to `NCCCNCCCCNCCCNCCCN(O)CCCNC(=O)Cc1c[nH]c2ccccc12` [NPS 017], for which the “effect on Cl- current” value in experiment [3] (BoPCaR 1-injected oocytes) is “caused oscillatory increases in the Cl^-”. Besides, the “effect in control oocytes” value in experiment [3] (uninjected, water or rat liver mRNA oocytes) is listed as “Neither NPS 017 nor NPS 019 elicited changes in Cl^-”. In the case of `CCOC(=O)C1=C(C)NC(C)=C(C(=O)OC)C1c1cccc([N+](=O)[O-])c1` (stereo not shown) [nitrendipine], the “effect on basal or extracellular Ca2+-evoked [Ca2+]i” value in experiment [1] (1 μM) is “None of the dihydropyridines tested”.

As to `COc1cccc([C@H](C)NCCCc2ccccc2Cl)c1` [NPS S-568], in experiment [3] (BoPCaR 1-injected oocytes, only at much higher concentrations), the concentration eliciting responses was found to be 100 µM. As to `COc1cccc([C@@H](C)N[C@H](C)c2cccc3ccccc23)c1` [Compound 14Y], the 50% effective concentration (EC50) in experiment [1] (Table 8) was found to be 0.38 µM. On to `N=C(N)NCCC[C@H](N)C(=O)NCCCNCCCNCCCCCNC(=O)[C@H](CC(N)=O)NC(=O)Cc1ccc(O)cc1O` [Argiotoxin-636], for which the “effect on response to extracellular Ca2+” value in experiment [1] is reported as “did potentiate cytosolic Ca^2+”. Moreover, the “effect on [Ca2+]i” value in experiment [1] (400 μM) was “did not elicit increases in [Ca^2+ ]”; in experiment [1] (100 to 300 μM), “had no effect”. Consider `N=C(N)NCCC[C@H](N)C(=O)NCCCNCCCNCCCCCNC(=O)[C@H](CC(N)=O)NC(=O)Cc1c[nH]c2cccc(O)c12` [Argiotoxin-659], for which the “effect on [Ca2+]i” value in experiment [1] (100 to 300 μM) was “evoked transient increases in [Ca^2+ ]i”.

`COc1cccc(C(C)NCCC(c2ccccc2)c2ccccc2)c1` (racemic) [meta-Methoxyfendiline]: in experiment [1], the “relative potency, in words” value is recorded as “as potent as NPS 467”.

In the case of `CCC[C@@H]1C[C@@H](C(=O)N[C@@H]([C@H]2O[C@H](SC)[C@H](O)[C@@H](O)[C@H]2O)[C@@H](C)O)N(C)C1` [lincomycin], the “effect on [Ca2+]i” value in experiment [1] (500 μM) is reported as “without effect”. On to `COC(=O)C1=C(C)NC(C)=C([N+](=O)[O-])C1c1ccccc1C(F)(F)F` (stereo not shown) [BAY K 8644], for which the “effect on basal or extracellular Ca2+-evoked [Ca2+]i” value in experiment [1] (1 μM) is “None of the dihydropyridines tested”. Consider `CCN(CC)CCCCCCCCOC(=O)c1cc(OC)c(OC)c(OC)c1` [TMB-8], for which, in experiment [1], the “mode of action at the calcium receptor” value is reported as “partial agonists or allosteric activators”, the “effect on mobilization elicited by extracellular divalent cations” value is “potentiated the mobilization of intracellular Ca^2+; also recorded: potentiated transient increases in [Ca^2+ ]i” and the “effect on [Ca2+]i at low extracellular Ca2+” value was “evoked no change”. Also, the “effect on influx of extracellular Ca2+” value in experiment [2] (100 μM) is on record as “blocked the influx of extracellular Ca^2+”. For the molecule `NCCNCCNCCNCCN` [Tetraethylenepentamine (TEPA), Tetraethylenepentamine], the “effect on [Ca2+]i” value in experiment [1] is on record as “mobilize intracellular Ca^2+”. As to `CC(C)c1ccc([C@@H](C)N[C@H](C)c2cccc3ccccc23)cc1` [Compound 14L], the concentration giving a half-maximal response (EC50) in experiment [1] (Table 8) is 0.26 µM. For the molecule `C[C@@H](NCc1ccc(C(C)(C)C)cc1)c1cccc2ccccc12` [Compound 15G], the EC50 in experiment [1] (Table 8) is about 0.5 µM.

`O=C(O)c1c2ccccc2cc2ccccc12` [Compound 9AC]: in experiment [3], the “effect on inward currents” value is reported as “blocks the currents”. Take `CC(N[C@H](C)c1ccccc1)c1ccc2ccccc2c1` (stereo partly shown) [Compound 4H]: the 50% effective concentration (EC50) in experiment [1] (Table 8) was at least 3 µM.

In the case of `NC[C@H]1O[C@H](O[C@H]2[C@H](O)[C@@H](O[C@H]3O[C@H](CO)[C@@H](O)[C@H](N)[C@H]3O)[C@H](N)C[C@@H]2N)[C@H](O)[C@@H](O)[C@@H]1O` [Kanamycin], in experiment [1] (500 μM), the “effect on [Ca2+]i” value is given as “without effect”.

The values are drawn from US5962314A, “Calcium receptor-active molecules” (priority 1997, dated 1999).
